Results reported in patent US20260250318A1, “COMPOSITIONS AND METHODS FOR CROSSING THE BLOOD BRAIN BARRIER” (VOYAGER THERAPEUTICS, INC., priority 2022, published 2026).

Legend:
[1] = test system: brains, heart, liver, muscle, and DRG of the NHPs; test: Maturation of TTM-001 and TTM-002 capsids, NGS enrichment in NHP tissues; type: in vivo; settings: relative to AAV9 control
Method in brief: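 Variants carry mutations within and flanking the loop IV peptide insert: positions 450–466 were triplet-randomized, while positions 449–466 received low-frequency point mutations. The combined pool went into two NHPs, and each peptide was scored by NGS enrichment ratio against AAV9.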

brain = test: Matured TTM-001 and TTM-002 variants, NGS enrichment in mouse brain; type: in vivo, mice; settings: relative to AAV9 control
[2] = NGS fold-enrichment, DRG of NHPs
[3] = NGS fold-enrichment, RNA, brain of NHPs
[4] = NGS fold-enrichment, heart of NHPs
[5] = NGS fold-enrichment, liver DNA of NHPs
[6] = NGS fold-enrichment, liver RNA of NHPs
[7] = NGS fold-enrichment, muscle of NHPs
[8] = NGS fold-enrichment, brain of mice
[9] = NGS fold-enrichment of matured AAV capsid variants, NHP brain, RNA
[10] = NGS fold-enrichment of RNA, NHP brain
[11] = NGS fold-enrichment, NHP liver DNA
[12] = NGS fold-enrichment, NHP liver RNA
[13] = NGS fold-enrichment, NHP muscle
[14] = NGS fold-enrichment, mouse brain

KEVHGSGSPHSKAQNQQT
Fold Enrichment relative to AAV9, DRG (NHP) [1, 2]: 0.000 fold
Fold Enrichment relative to AAV9, Brain (NHP) [1, 3]: 67.901 fold
Fold Enrichment relative to AAV9, Heart (NHP) [1, 4]: 0.000 fold
Fold Enrichment relative to AAV9, Liver DNA (NHP) [1, 5]: 0.000 fold
Fold Enrichment relative to AAV9, Liver RNA (NHP) [1, 6]: 0.727 fold
Fold Enrichment relative to AAV9, Muscle (NHP) [1, 7]: 0.000 fold
Fold Enrichment relative to AAV9, Brain (Mouse) (brain; [8]): 100.111 fold

KTINGSGSPHSKAQAKGT
Fold Enrichment relative to AAV9, Brain (NHP) [1, 9]: 51.727 fold
Fold Enrichment relative to AAV9, DRG (NHP) ([1]; NHP DRG): 0.048 fold
Fold Enrichment relative to AAV9, Heart (NHP) ([1]; NHP heart): 0.016 fold
Fold Enrichment relative to AAV9, Liver DNA (NHP) ([1]; NHP liver, DNA): 0.525 fold
Fold Enrichment relative to AAV9, Liver RNA (NHP) ([1]; NHP liver, RNA): 0.271 fold
Fold Enrichment relative to AAV9, Muscle (NHP) ([1]; NHP muscle): 0.000 fold
Fold Enrichment relative to AAV9, Brain (Mouse) (brain; mouse brain): 104.917 fold

KTESHSGSPHSKAQNQQT
Fold Enrichment relative to AAV9, DRG (NHP) [1, 2]: 0.000 fold
Fold Enrichment relative to AAV9, Brain (NHP) [1, 3]: 61.947 fold
Fold Enrichment relative to AAV9, Heart (NHP) [1, 4]: 0.000 fold
Fold Enrichment relative to AAV9, Liver DNA (NHP) [1, 5]: 0.106 fold
Fold Enrichment relative to AAV9, Liver RNA (NHP) [1, 6]: 1.480 fold
Fold Enrichment relative to AAV9, Muscle (NHP) [1, 7]: 0.000 fold
Fold Enrichment relative to AAV9, Brain (Mouse) (brain; [8]): 52.506 fold

KTINGHDSPHKSGQNKLE
Fold Enrichment relative to AAV9, Brain (NHP) [1, 10]: 76.204 fold
Fold Enrichment relative to AAV9, DRG (NHP) ([1]; NGS fold-enrichment, NHP DRG): 0.000 fold
Fold Enrichment relative to AAV9, Heart (NHP) ([1]; NGS fold-enrichment, NHP heart): 1.430 fold
Fold Enrichment relative to AAV9, Liver DNA (NHP) [1, 11]: 0.031 fold
Fold Enrichment relative to AAV9, Liver RNA (NHP) [1, 12]: 0.015 fold
Fold Enrichment relative to AAV9, Muscle (NHP) [1, 13]: 0.000 fold
Fold Enrichment relative to AAV9, Brain (Mouse) (brain; [14]): 12.419 fold

KTSNGSGSPHSKAHYQQT
Fold Enrichment relative to AAV9, Brain (NHP) [1, 9]: 54.414 fold
Fold Enrichment relative to AAV9, DRG (NHP) ([1]; NHP DRG): 0.000 fold
Fold Enrichment relative to AAV9, Heart (NHP) ([1]; NHP heart): 0.251 fold
Fold Enrichment relative to AAV9, Liver DNA (NHP) ([1]; NHP liver, DNA): 0.204 fold
Fold Enrichment relative to AAV9, Liver RNA (NHP) ([1]; NHP liver, RNA): 0.249 fold
Fold Enrichment relative to AAV9, Muscle (NHP) ([1]; NHP muscle): 0.000 fold
Fold Enrichment relative to AAV9, Brain (Mouse) (brain; mouse brain): 54.162 fold

KTVNGHDSPHKIGHNQQT
Fold Enrichment relative to AAV9, Brain (NHP) [1, 10]: 120.985 fold
Fold Enrichment relative to AAV9, DRG (NHP) ([1]; NGS fold-enrichment, NHP DRG): 0.000 fold
Fold Enrichment relative to AAV9, Heart (NHP) ([1]; NGS fold-enrichment, NHP heart): 0.029 fold
Fold Enrichment relative to AAV9, Liver DNA (NHP) [1, 11]: 0.009 fold
Fold Enrichment relative to AAV9, Liver RNA (NHP) [1, 12]: 0.000 fold
Fold Enrichment relative to AAV9, Muscle (NHP) [1, 13]: 0.000 fold
Fold Enrichment relative to AAV9, Brain (Mouse) (brain; [14]): 10.167 fold

KAINGHDSPHKSGQSPQT
Fold Enrichment relative to AAV9, Brain (NHP) [1, 10]: 75.734 fold
Fold Enrichment relative to AAV9, DRG (NHP) ([1]; NGS fold-enrichment, NHP DRG): 0.095 fold
Fold Enrichment relative to AAV9, Heart (NHP) ([1]; NGS fold-enrichment, NHP heart): 0.148 fold
Fold Enrichment relative to AAV9, Liver DNA (NHP) [1, 11]: 0.238 fold
Fold Enrichment relative to AAV9, Liver RNA (NHP) [1, 12]: 0.000 fold
Fold Enrichment relative to AAV9, Muscle (NHP) [1, 13]: 0.000 fold
Fold Enrichment relative to AAV9, Brain (Mouse) (brain; [14]): 14.195 fold

KNCWGSGSPHSKAQNQQT
Fold Enrichment relative to AAV9, Brain (NHP) [1, 9]: 57.756 fold
Fold Enrichment relative to AAV9, DRG (NHP) ([1]; NHP DRG): 0.000 fold
Fold Enrichment relative to AAV9, Heart (NHP) ([1]; NHP heart): 0.000 fold
Fold Enrichment relative to AAV9, Liver DNA (NHP) ([1]; NHP liver, DNA): 0.092 fold
Fold Enrichment relative to AAV9, Liver RNA (NHP) ([1]; NHP liver, RNA): 0.000 fold
Fold Enrichment relative to AAV9, Muscle (NHP) ([1]; NHP muscle): 0.000 fold
Fold Enrichment relative to AAV9, Brain (Mouse) (brain; mouse brain): 59.888 fold

KTINGPGSPHSKAHNQQT
Fold Enrichment relative to AAV9, Brain (NHP) [1, 10]: 115.742 fold
Fold Enrichment relative to AAV9, DRG (NHP) [1, 2]: 0.146 fold
Fold Enrichment relative to AAV9, DRG (NHP) ([1]; NGS fold-enrichment, NHP DRG): 0.146 fold
Fold Enrichment relative to AAV9, Heart (NHP) ([1]; NGS fold-enrichment, NHP heart): 0.000 fold
Fold Enrichment relative to AAV9, Liver DNA (NHP) [1, 11]: 0.513 fold
Fold Enrichment relative to AAV9, Liver RNA (NHP) [1, 12]: 0.000 fold
Fold Enrichment relative to AAV9, Muscle (NHP) [1, 13]: 0.235 fold
Fold Enrichment relative to AAV9, Brain (NHP) [1, 3]: 115.742 fold
Fold Enrichment relative to AAV9, Heart (NHP) [1, 4]: 0.000 fold
Fold Enrichment relative to AAV9, Liver DNA (NHP) [1, 5]: 0.513 fold
Fold Enrichment relative to AAV9, Liver RNA (NHP) [1, 6]: 0.000 fold
Fold Enrichment relative to AAV9, Muscle (NHP) [1, 7]: 0.235 fold
Fold Enrichment relative to AAV9, Brain (Mouse) (brain; [8]): 52.508 fold
Fold Enrichment relative to AAV9, Brain (Mouse) (brain; [14]): 52.508 fold

KTINGQDSPHKSGQHQQA
Fold Enrichment relative to AAV9, Brain (NHP) [1, 10]: 85.657 fold
Fold Enrichment relative to AAV9, DRG (NHP) ([1]; NGS fold-enrichment, NHP DRG): 1.127 fold
Fold Enrichment relative to AAV9, Heart (NHP) ([1]; NGS fold-enrichment, NHP heart): 0.579 fold
Fold Enrichment relative to AAV9, Liver DNA (NHP) [1, 11]: 0.557 fold
Fold Enrichment relative to AAV9, Liver RNA (NHP) [1, 12]: 0.193 fold
Fold Enrichment relative to AAV9, Muscle (NHP) [1, 13]: 0.000 fold
Fold Enrichment relative to AAV9, Brain (Mouse) (brain; [14]): 5.582 fold
